Earlier results on three molecules are cited in patent US20250360119A1, “THIAZOLIDINEDIONES FOR THE TREATMENT OF MUSCULAR DYSTROPHIES” (The Johns Hopkins University, priority 2022, published 2025).

For data set [1] the following is noted: clinical studies.
The test system of another data set is aged mice. The following applies: injected into the muscle directly.

Turning to `CC1(COc2ccc(CC3SC(=O)NC3=O)cc2)CCCCC1` (stereo not shown) [ciglitazone, 5-[4-(1-methylcyclohexylmethoxy)benzyl]-thiazolidine-2,4-dione], in the data set with KKAy mice, the blood glucose levels result is “reduce blood glucose levels without increasing insulin secretion” and the peripheral insulin resistance entry is “reduce peripheral insulin resistance”. `CN(CCOc1ccc(CC2SC(=O)NC2=O)cc1)c1ccccn1` (stereo not shown) [rosiglitazone]: the cardiovascular toxicity entry in data set [1] was “no longer considered significant issues”.

B1: recombinant GDF3: recombinant Growth Differentiation Factor 3, a member of the TGFβ family (protein, UniProt Q9NR23 251-364, looked up)
Growth/differentiation factor …: AAIPVPKLSCKNLCHRHQLFINFRDLGWHKWIIAPKGFMANYCHGECPFSLTISLNSSNYAFMQALMHAVDPEIPQAVCIPTKLSPISMLYQDNNDNVILRHYEDMVVDECGCG
On to B1, for which the “delay in muscle regeneration after CTX injury” value in the data set on aged mice was “able to alleviate some of the delay”.
